According to patent US20190133985A1 (Orbus Therapeutics, Inc., priority 2016, published 2019):
Structures can show the parent of a compound that is named as a salt.

Experiments:
GPR116 gene = experiment: Exon-Seq frequency of C/T mutation at chr6: 46,867,771 in U87MG cells; settings: for mutation rate: TMZ EC-20 for 3 days then eflornithine 100 μM
TP53BP1 gene = experiment: Exon-Seq frequency of C/T mutation at chr15: 43,762,196 in U87MG cells; settings: for mutation rate: TMZ EC-50 for 3 days then eflornithine 200 μM
ADAM 32 gene = experiment: Exon-Seq frequency of G/A mutation at chr8: 38,964,647 in U87MG cells; settings: for mutation rate: TMZ EC-50 for 3 days then eflornithine 200 μM
U87MG cells = experiment: Exon-Seq mutation frequency in glioblastoma cell line model (nucleotides susceptible to TMZ-induced mutations); type: cell-based, human
Method: Preliminary data analysis was performed to identify nucleotides susceptible to temozolomide (TMZ)-induced mutations per TMZ concentration. Mutation frequency results were analyzed for 13,040 nucleotide polymorphisms across 6,455 genes that have been previously identified as potentially cancer related based on their description in the Catalogue of Somatic Mutations in Cancer (COSMIC) database.
Statistical analysis of the Exon-Seq data was performed using JMP™ Software. The mutation frequencies were analyzed using ANOVA analysis of variance and the Student's t-test.

MUC16 gene = experiment: Exon-Seq frequency of T/A mutation at chr19: 9,071,763 in U87MG cells; settings: for mutation rate: TMZ EC-50 for 3 days then eflornithine 200 μM
low-grade gliomas = settings: adjuvant temozolomide chemotherapy; TMZ-induced mutagenesis signature in RB and AKT-mTOR pathways; cited from earlier work

For NCCCC(N)(C(=O)O)C(F)F (racemic) [eflornithine, D,L-2-(difluoromethyl) ornithine monohydrochloride monohydrate], the mutation rate (GPR116 gene; 7 days) was 60.6%, the mutation rate (GPR116 gene; 14 days) was 45.0% and the mutation rate (TP53BP1 gene; 7 days) was 29.7%. The mutation rate (TP53BP1 gene; 14 days) was 38.4%, the mutation rate (ADAM 32 gene; 7 days) was 33.3% and the mutation rate (ADAM 32 gene; 14 days) was 43.2%. For the same compound, the “effect on mutation rate compared to the TMZ-treated cells, combined data set (ANOVA, Student's t-test)” value (U87MG cells; sequential DFMO 100 μM after TMZ EC-20) was “significant decrease”, the “effect on mutation rate compared to the TMZ-treated cells, combined data set (ANOVA, Student's t-test)” value (U87MG cells; sequential eflornithine 50 μM after TMZ EC-10) was “significant decrease” and the “effect on mutation rate compared to the TMZ-treated cells, combined data set (ANOVA, Student's t-test)” value (U87MG cells; sequential eflornithine 200 μM after TMZ EC-50) was “significant decrease”. For the same compound, the mutation rate (MUC16 gene; 7 days) was 49.1% and the mutation rate (MUC16 gene; 14 days) was 47.3%.
For Cn1nnc2c(C(N)=O)ncn2c1=O [TMZ, 4-methyl-5-oxo-2,3,4,6,8-pentazabicyclo[4.3.0]nona-2,7,9-triene-9-carboxamide], the mutation frequency (GPR116 gene; TMZ EC-20, day 3) is listed as 69.6%, the “patients whose tumors showed hypermutation (alternative evolutionary path to high-grade glioma)” value (low-grade gliomas) is listed as 6 of 10 and the mutation frequency (TP53BP1 gene; TMZ EC-50, day 3) is listed as 62.5%. The mutation frequency (ADAM 32 gene; TMZ EC-50, day 3) was 63.6%, the “Number of nucleotides showing higher than 15% mutation frequency increase due to TMZ treatment” value (U87MG cells; All three concentrations) was 97 and the “Number of nucleotides showing higher than 15% mutation frequency increase due to TMZ treatment” value (U87MG cells; At least one concentration) was 876. For the same compound, the “Mean Mutation Frequency” value (U87MG cells; TMZ EC10, T = 3 days) was 57%, the “Number of nucleotides showing higher than 15% mutation frequency increase due to TMZ treatment” value (U87MG cells; TMZ EC10, 13,040 nucleotide polymorphisms across 6,455 genes) was 424 and the “Number of nucleotides showing higher than 15% mutation frequency increase due to TMZ treatment” value (U87MG cells; TMZ EC20) was 436. The “Mean Mutation Frequency” value (U87MG cells; TMZ EC20, T = 3 days) was 59%, the “Number of nucleotides showing higher than 15% mutation frequency increase due to TMZ treatment” value (U87MG cells; TMZ EC50) was 417 and the “Mean Mutation Frequency” value (U87MG cells; TMZ EC50, T = 3 days) was 60%. For the same compound, the “effect on mutation frequency, combined data set (ANOVA, Student's t-test)” value (shortened to “effect on mutation frequency”) (U87MG cells; TMZ EC-10) was “significant increase”, the “effect on mutation frequency” value (U87MG cells; TMZ EC-20) was “significant increase” and the “effect on mutation frequency” value (U87MG cells; TMZ EC-50) was “significant increase”. It also gave a mutation frequency (MUC16 gene; TMZ EC-50, day 3) of 64.0%.
